Measured values: article PMC12257073 (Cancer Research Communications, 2025)
Like-named read-outs stand apart in the source and are kept apart here.

Legend:
p-H2AX = p-H2AX in peripheral blood by spectral flow cytometry; format: in vivo, human; details: cycle 1, CR (n = 2), CRh/CRi/MLFS (n = 8), SD, treatment failure or early death (n = 7)
Experimental: In brief, Ficoll-enriched peripheral blood mononuclear cells were stained for external markers, fixed, permeabilized, and then stained for p-H2AX (Thermo Fisher Scientific; AB_2896984). Sample analysis was performed in the Ohio State University Comprehensive Cancer Center Flow Cytometry Shared Resource and Immune Monitoring & Discovery Platform using the Cytek Aurora. Data were analyzed using FCS Express version 7 (De Novo Software).
Based on the observation that TP-0903 upregulates p-H2AX, a marker of DNA damage, in TP53-mutated cell lines ([24]), we hypothesized that p-H2AX could serve as a clinical biomarker for TP-0903 activity. Analysis of peripheral blood from days 1 and 10 of cycle 1 was performed by spectral flow cytometry. The mean fluorescence intensity was measured for p-H2AX, and then values at day 10 were normalized using baseline values collected on day 1 (Supplementary Fig. S4).

[1] = Plasma pharmacokinetics of TP-0903 and metabolites (LC-MS/MS, noncompartmental analysis); format: in vivo, human; details: for Pre-treatment trough / Cmax / Tmax / AUC(0-t) / concentration at 24 h: median (range); for Cmax / Tmax / AUC(0-t) / concentration at 24 h: human, plasma, oral; for AUC(0-t): read-out: AUC0-24h; for concentration at 24 h: read-out: C24h trough
Experimental: On days 1 and 10 of cycle 1, plasma samples were collected for PK analysis from a total of 25 patients. In the phase 1b study portion of the study, plasma was collected before administration of TP-0903 on day 10 and at 0.5, 1, 2, 4, 8, and 24 hours after administration of TP-0903 on days 1 and 10. In the phase 2 portion of the study, plasma was collected at 2, 4, and 24 hours after drug administration. A validated ultrahigh-performance LC-MS/MS method was developed and used to quantify TP-0903 and its four major metabolites (M2, M3, M4, and M6) in plasma.
TP-0903 and its metabolites M2, M3, M4, and M6 were quantified in plasma using solid phase extraction and LC-MS/MS in the Ohio State University Comprehensive Cancer Center Pharmacoanalytical Shared Resource. See Supplementary Methods for details.
Sample preparation comprised 200 µL of K2EDTA plasma sample combined with 5 µL of 150 ng/mL internal standard mixture (TP-0903-d8 (NSN23293), M2-d8 (NSN23290), M3-d8 (NSN23292), M4-d8 (NSN23291), and M6-d8 (NSN23296)), 50 µL deionized (DI) water, and 50 µL of methanol in the wells of a 2-mL 96-well plate. Reference standards for TP-0903 (ditartrate salt), metabolites, and internal standards were obtained from Sumitomo Pharma America, Inc. (formerly Sumitomo Pharma Oncology, Inc.). Sample preparation was followed by shaking at 500 rpm for 5 minutes at room temperature and the addition of 1 mL of 0.1M sodium carbonate (791768-500G). After centrifugation at 3095 rcf for 10 minutes, 1 mL of supernatant was loaded onto a conditioned 30 mg HLB SPE plate (conditioning included 1 mL methanol flow through followed by 1 mL water flow through). After samples were loaded and passed through the SPE plate using a vacuum, the plate was washed with 1 mL DI water. Once the water passed through, analyte elution was done by loading 1 mL 2% formic acid in methanol, followed by drying with N2 gas heated to 40 °C. Once dried, they were resuspended with 100 µL reconstitution solution (22% acetonitrile, 22% methanol, 56% DI water, 0.5 mM ammonium acetate, and 0.2% formic acid). The chromatographic method utilized a gradient elution with mobile phase A (MPA; 15% acetonitrile, 15% methanol, 70% DI water, 0.5 mM ammonium acetate, and 0.2% formic acid) and mobile phase B (MPB; 45% acetonitrile, 45% methanol, 10% DI water, 0.5 mM ammonium acetate (09689-100G), and 0.2% formic acid (F0441-32)). The flow rate begins at 0.4 mL/min with 25% MPB, at 2.5 min the flow rate increased to 0.6 mL/min, at 5.5 minutes the %MPB increased to 100%, at 7.01 min the flow rate and %MPB decreased to 0.4 mL/min and 25%, respectively, until the end of the run. This method was run using an ACE Excel SuperC18 (3.0 x 75 mm, 5 µm, 90Å) column (EXL-1211-7503) with a ThermoFisher Scientific Vanquish™ – ThermoFisher Scientific (SCR_025713) TSQ Altis LC-MS/MS system (TSQ02-10002). The analytes and internal standards were evaluated in positive mode with the transitions monitored including M2 488.12->402.125, M2-d8 496.25->402.095, M3 502.2->402.113, M3-d8 510.2->402.113, M4 502.138->416.125, M4-d8 510.188->416.125, M6 518.112->402, M6-d8 526.2->402.113, and TP-0903 516.2->416.125, TP-0903-d8 524.237->416.125. […] Three quality control samples (QC Low, QC Medium, and QC High) were monitored during sample analyses to ensure the accuracy of assay quantitation. Additionally, a validation was performed that included the evaluation of selectivity, matrix effects, sensitivity, carry-over, freeze-thaw stability, processed sample stability, recovery, and dilution integrity (20X and 10X). Intra- and inter- day accuracy and precision of the calibrators and quality control samples, which also included the LLOQ for each analyte, was evaluated over 3 days. The quality control samples concentrations were continually monitored by statistical analysis of runs using Westgard rules (13s, 22s, R4s, and 10x) and adherence to FDA guidance of being within 15% except at the LLOQ of being within 20%. […]

[2] = TP-0903 dose 25mg, Day 10 of course 1, plasma
[3] = TP-0903 dose 37 mg, Day 10 of course 1, plasma
[4] = 25 mg, TP-0903 dose 25mg, Day 1 of course 1, plasma
[5] = 25 mg, TP-0903 dose 25mg, Day 10 of course 1, plasma
[6] = 37 mg, TP-0903 dose 37 mg, Day 1 of course 1, plasma
[7] = 37 mg, TP-0903 dose 37 mg, Day 10 of course 1, plasma

CN1CCN(Cc2ccc(Nc3ncc(Cl)c(Nc4ccccc4S(=O)(=O)N(C)C)n3)cc2)CC1.O=C(O)C(O)C(O)C(=O)O.O=C(O)C(O)C(O)C(=O)O [TP-0903, 2-(5-chloro-2-(4-((4-methylpiperazin-1-yl)methyl)phenylamino)pyrimidin-4-yl)amino-N,N-dimethylbenzene-1-sulfonamide di-tartrate salt]
Change in p-H2AX mean fluorescence intensity, day 10 normalized to day 1 (p-H2AX): no significant change | Steady-state TP-0903 plasma exposure (Css Min on Day 10), responders vs non-responders ([1]; Supplementary Fig. S3A): no significant difference | Decrease in absolute neutrophil count or platelets in patients with steady-state plasma exposure above the median ([1]; Supplementary Fig. S3B, S3C): did not have a greater decrease | Pre-treatment trough [1, 2]: 7.1 (3.3-17) ng/mL | Pre-treatment trough [1, 3]: 5.3 (1.0-21) ng/mL | Drug accumulation ratio ([1]; based on the median AUC, day 10 vs day 1, both groups): six | Variation in the steady-state Cmax of parent TP-0903 ([1]; both groups (37 mg and 25 mg)): > 25 fold | Cmax [1, 4]: 2.4 ng/mL | Tmax [1, 4]: 2.8 h | AUC(0-t) ([1]; 25 mg, TP-0903 dose 25mg, Day 1 of course 1, plasma, N=11): 42 ng·h/mL | Cmax [1, 5]: 14 ng/mL | Tmax [1, 5]: 3.5 h | AUC(0-t) ([1]; 25 mg, TP-0903 dose 25mg, Day 10 of course 1, plasma, N=8): 260 ng·h/mL | Cmax [1, 6]: 3.3 ng/mL | Tmax [1, 6]: 2.1 h | AUC(0-t) ([1]; 37 mg, TP-0903 dose 37 mg, Day 1 of course 1, plasma, N=10): 36 ng·h/mL | Cmax [1, 7]: 13 ng/mL | Tmax [1, 7]: 3.9 h | AUC(0-t) ([1]; 37 mg, TP-0903 dose 37 mg, Day 10 of course 1, plasma, N=9): 210 ng·h/mL | concentration at 24 h ([1]; TP-0903 dose 25mg, Day 1 of course 1, plasma): 1.9 ng/mL | concentration at 24 h [1, 2]: 8.1 ng/mL | concentration at 24 h ([1]; TP-0903 dose 37 mg, Day 1 of course 1, plasma): 0.7 ng/mL | concentration at 24 h [1, 3]: 5.8 ng/mL
